Marks after values point to notes of the source that are not given here.
Experiments:
[1] = test system: AMPA receptors; assay: Voltage whole-cell recording: inhibition of KA-induced rundown of AMPA current in acutely dissociated prefrontal cortical neurons; format: cell-based, rats; details: KA 200 μM; rat PFC neurons; whole-cell voltage clamp, held at −60 mV; 0.1 μM was the lowest concentration tested
Experimental: (§1) Prefrontal cortical (PFC) neurons from young adult (3-5 weeks postnatal) rats are acutely dissociated using procedures similar to those described previously (Feng, et al., J Neurosci, 2001; Chen, et al., Proc Natl Acad Sci USA, 2004). After incubation of brain slices in a NaHCO3-buffered saline, PFC is dissected and placed in an oxygenated chamber containing papain (Sigma, 0.8 mg/ml) in HEPES-buffered Hank's balanced salt solution (HBSS, Sigma) at room temperature. After 40 minutes of enzyme digestion, tissue is rinsed three times in the low Ca^+2, HEPES-buffered saline and mechanically dissociated with a graded series of fire-polished Pasteur pipettes. The cell suspension is then plated into a 35 mm Lux Petri dish, which is then placed on the stage of a Nikon inverted microscope.
(§2) Whole-cell recordings of whole-cell ion channel currents employ standard voltage clamp techniques (Yan et al., Nat Neuroscience, 1999; Wang et al., J Neurosci, 2003; Tyszkiewicz et al., J. Physiol., 2004). The internal solution (inside the patch pipette) consists of (in mM): 180 N-methyl-d-glucamine (NMG), 40 HEPES, 4 MgCl2, 0.1 BAPTA, 12 phosphocreatine, 3 Na2ATP, 0.5 Na2GTP, 0.1 leupeptin, pH=7.2-7.3, 265-270 mosm/L. The external solution consists of (in mM): 127 NaCl, 20 CsCl, 10 HEPES, 1 CaCl2, 5 BaCl2, 12 glucose, 0.001 TTX, 0.02 glycine, pH=7.3-7.4, 300-305 mOsm/L. Recordings are obtained with an Axon Instruments 200B patch clamp amplifier that is controlled and monitored with an IBM PC running pCLAMP (v. 8) with a DigiData 1320 series interface (Axon instruments). Electrode resistances are typically 2-4 MΩ in the bath. After seal rupture to attain whole-cell recording conditions, series resistance (4-10 MΩ) is compensated (70-90%) and periodically monitored. The cell membrane potential is held at −60 mV.
(§3) The application of KA (200 μM) or NMDA (100 μM, in Mg^2+-free solution) evokes a partially desensitizing inward current. KA or NMDA is applied for 2 seconds every 30 seconds to minimize desensitization-induced decrease of current amplitude. Drugs are applied with a gravity-fed ‘sewer pipe’ system. The array of application capillaries (ca. 150 μm i.d.) is positioned a few hundred microns from the cell under study. Solution changes are effected by the SF-77B fast-step solution stimulus delivery device (Warner Instruments). Data are collected with PCLAMP software and analyzed with AXOGRAPH, KALEIDOGRAPH, and STATVIEW.
(§4) Compounds described herein inhibit the KA-induced rundown of AMPA current by either stabilizing the agonist-evoked current of increasing the current. Likewise, compounds described herein increase the NMDA-evoked current. The minimum effective dose (MED) was identified by determining the lowest concentration of inhibitor that was effective in each functional assay.

[2] = test system: NMDA receptors; assay: Voltage whole-cell recording: increase of NMDA-evoked current in acutely dissociated prefrontal cortical neurons; format: cell-based, rats; details: rat PFC neurons; for Increase of NMDA-Evoked Current, Minimal Effective Concentration: NMDA 100 μM in Mg2+-free solution, whole-cell voltage clamp; for Average percent increase in NMDA current (10 μM): compound at 10 μM, NMDA 100 μM
Experimental: as §1, §2, §3, §4

Structure (SMILES): Cc1cc(-c2c(C)nn(-c3ccccc3F)c2O)[nH]n1 [Example 4, 2′-(2-Fluoro-phenyl)-5,5′-dimethyl-2H,2′H-[3,4′]bipyrazolyl-3′-ol]
- Inhibition of KA-Induced Rundown of AMPA Current, Minimal Effective Concentration [1]: 0.1 * μM

Structure (SMILES): Cc1cc(-c2c(C)nn(-c3ccc(Cl)cc3)c2O)[nH]n1 [Example 5, 2′-(4-Chloro-phenyl)-5,5′-dimethyl-2H,2′H-[3,4′]bipyrazolyl-3′-ol]
- Inhibition of KA-Induced Rundown of AMPA Current, Minimal Effective Concentration [1]: 0.1 * μM

Structure (SMILES): Cc1cc(-c2c(C)nn(-c3ccc(C(F)(F)F)cc3)c2O)[nH]n1 [Example 8, 5,5′-Dimethyl-2′-(4-trifluoromethyl-phenyl)-2H,2′H-[3,4′]bipyrazolyl-3′-ol]
- Increase of NMDA-Evoked Current, Minimal Effective Concentration [2]: 1 µM
- Average percent increase in NMDA current (10 μM) [2]: 303%

Structure (SMILES): Cc1cccc(-n2nc(C)c(-c3cc(C)n[nH]3)c2O)c1 [Example 15, 5,5′-Dimethyl-2′-(3-methyl-phenyl)-2H,2′H-[3,4′]bipyrazolyl-3′-ol]
- Inhibition of KA-Induced Rundown of AMPA Current, Minimal Effective Concentration [1]: 1.0 µM

Structure (SMILES): Cc1cc(-c2c(C)nn(-c3cccc(Cl)c3)c2O)[nH]n1 [Example 18, 5,5′-Dimethyl-2′-(3-chlorophenyl)-2H,2′H-[3,4′]bipyrazolyl-3′-ol]
- Increase of NMDA-Evoked Current, Minimal Effective Concentration [2]: 5 µM
- Average percent increase in NMDA current (10 μM) [2]: 55%
- Inhibition of KA-Induced Rundown of AMPA Current, Minimal Effective Concentration [1]: 1.0 µM

Structure (SMILES): Cc1cc(-c2c(C)nn(-c3ccccc3)c2O)[nH]n1 [Example 25, 5,5′-Dimethyl-2′-phenyl-2H,2′H-[3,4′]bipyrazolyl-3′-ol]
- Inhibition of KA-Induced Rundown of AMPA Current, Minimal Effective Concentration [1]: 1.0 µM

— US8053458B2, “Dipyrazole compounds and their use as central nervous system agents” (Aventis Pharmaceuticals Inc., priority 2005, dated 2011)
